The results in this text go back to patent publication US9346957B2, “Cell permeable, fluorescent dye” (École Polytechnique Fédérale de Lausanne (EPFL), priority 2011, dated 2016).

One data set relates to SNAP-tag fusion proteins. In words: Live cell labeling of SNAP-tag fusion proteins, fluorescence imaging. The note with it: living mammalian cells, incubation with dye. The class given is cell-based. As to the method: (§1) As a representative example for the labeling of a SNAP-tag fusion with BG-Sir650, the labeling and fluorescence imaging of SNAP-Cep41 (microtubule binding protein) fusion protein in U2OS cells is described. SNAP-Cep41 was expressed from episomal pEBTet plasmid encoding puromycin resistance under a doxycycline inducible promoter in U2OS cells. Prior to induction of expression, cells were selected by growing them in complete Dulbecco's Modified Eagle's Medium (DMEM) with 1 μg/ml puromycin for at least 1.5 weeks. SNAP-Cep41 fusion protein expression was induced for 48 h by adding to complete DMEM grow medium doxycycline at final concentration of 0.1 μg/ml before staining procedure. Living cells were stained by replacing old media with complete DMEM growth media containing 5 μM BG-SiR650, and incubated for 30 min at 37° C. in 5% CO2 incubator. Cells were washed two times with Hank's Buffered Salt Solution (HBSS) for 5 min and once with media for 1 h. Before imaging, growth media was replaced with HBSS. Images (FIG. 2A) were acquired on a confocal fluorescence microscope as z-stacks and presented as maximum intensity projections. For the imaging of fixed cells, living cells were labeled with 1 μM BG-Sir650 for 30 min at 37° C. […] Images (FIG. 2B) were acquired on a confocal fluorescence microscope as z-stack and presented as maximum intensity projections. […]

The test system of the next data set is mammalian cells. In words: Membrane permeability, shown by incubating cells with the dye and fluorescence imaging. The class given is cell-based. The note with it: simple incubation with the dye. As to the method: as §1

Each structure is given as a SMILES string.

As to `CN(C)c1ccc2c(c1)[Si](C)(C)C1=CC(=[N+](C)C)C=CC1=C2c1cc(C(=O)NCc2ccc(COc3nc(N)nc4[nH]cnc34)cc2)ccc1C(=O)[O-]` [SiR650-6BG], the “specific labeling of SNAP-tag fusion proteins in living cells” value in the data set on SNAP-tag fusion proteins is given as “permits the specific labeling of SNAP-tag fusion proteins”. For the same molecule, the membrane permeability result in the data set with mammalian cells was “excellent membrane permeability”.
